Patent US12514251B2, “Fused heterocyclic compounds and their use as pest control agents” (priority 2020, dated 2026)

The compounds below were run on Plutella xylostella (assay: Plutella xylostella, leaf dip method). Conditions: foliar, cabbage leaf dip, second instar larvae, 72 h after release, dead + moribund vs untreated control, read-out: percent mortality.
Assay type: in vivo
Description: The leaf dip method was used for testing, wherein the required quantity of the compound was weighed and dissolved in a tube containing solvent solution. The tube was put on a vortex at 2000 rpm for 90 min for proper mixing, then diluted with 0.01% Triton-X solution to get the desired test concentration. Cabbage leaves were dipped in the compound solution for 10 seconds, shade dried for 20 min and then transferred into the cells of bioassay trays. A single second instar larva was released into each cell and the tray was covered with a lid. The bio-assay trays were then kept under laboratory conditions at a temperature of 25° C. and a relative humidity of 70%. Observations on dead, moribund and alive larvae were recorded 72 h after the release. Percent mortality was calculated by combining dead and moribund larvae and comparing the result to the one of the untreated control.

Question: Which mortality at 300 ppm does the source give for CCS(=O)(=O)c1cc(OCC2CC2)cnc1-c1ccn2nc(C(F)(F)F)nc2n1 [Compound 161, 5-(5-(cyclopropylmethoxy)-3-(ethylsulfonyl)pyridin-2-yl)-2-(trifluoromethyl)-[1,2,4]triazolo[1,5-a]pyrimidine] here?
Answer: The mortality at 300 ppm was no less than 70%.

Question: For CCSc1cc(-c2ccc(OC(F)(F)C(F)F)cc2)cnc1-c1ccn2nc(C(F)(F)F)cc2n1 [Compound 191, 5-(3-(ethylthio)-5-(4-(1,1,2,2-tetrafluoroethoxy)phenyl)pyridin-2-yl)-2-(trifluoromethyl)pyrazolo[1,5-a]pyrimidine], which mortality at 300 ppm is on record?
Answer: The mortality at 300 ppm was no less than 70%.

Question: For CCS(=O)(=O)c1cc(N(C)C)cnc1-c1ccn2nc(C(F)(F)F)cc2n1 [Compound 230, 5-(ethylsulfonyl)-N,N-dimethyl-6-(2-(trifluoromethyl)pyrazolo[1,5-a]pyrimidin-5-yl)pyridin-3-amine], which mortality at 300 ppm is on record?
Answer: Its mortality at 300 ppm is no less than 70%.

Question: With CCc1cnc(-c2ccn3nc(C(F)(F)F)cc3n2)c(S(=O)(=O)CC)c1 [Compound 211, 5-(5-ethyl-3-(ethylsulfonyl)pyridin-2-yl)-2-(trifluoromethyl)pyrazolo[1,5-a]pyrimidine] as the compound, how does the mortality at 300 ppm read?
Answer: Its mortality at 300 ppm is no less than 70%.

Question: CCSc1ccc(C)nc1-c1ccn2nc(C(F)(F)F)nc2n1 [Compound 187, 5-(3-(ethylthio)-6-methylpyridin-2-yl)-2-(trifluoromethyl)-[1,2,4]triazolo[1,5-a]pyrimidine] was tested. Which mortality at 300 ppm did it give?
Answer: The mortality at 300 ppm was no less than 70%.

Question: With CCS(=O)(=O)c1cc(-c2cc(Cl)cc(Cl)c2)cnc1-c1ccn2nc(C(F)(F)F)nc2n1 [Compound 102, 5-(5-(3,5-dichlorophenyl)-3-(ethylsulfonyl)pyridin-2-yl)-2-(trifluoromethyl)-[1,2,4]triazolo[1,5-a]pyrimidine] as the compound, how does the mortality at 300 ppm read?
Answer: The mortality at 300 ppm was no less than 70%.

Question: For CCS(=O)(=O)c1cc(-c2cc(C(F)(F)F)nn2C)cnc1-c1ccn2nc(C(F)(F)F)cc2n1 [Compound 78, 5-(3-(ethylsulfonyl)-5-(1-methyl-3-(trifluoromethyl)-1H-pyrazol-5-yl)pyridin-2-yl)-2-(trifluoromethyl)pyrazolo[1,5-a]pyrimidine], which mortality at 300 ppm is on record?
Answer: The mortality at 300 ppm was no less than 70%.

Question: Which mortality at 300 ppm does the source give for CCS(=O)(=O)c1cc(-n2cnc(Br)n2)cnc1-c1ccn2nc(C(F)(F)F)cc2n1 [Compound 177, 5-(5-(3-bromo-1H-1,2,4-triazol-1-yl)-3-(ethylsulfonyl)pyridin-2-yl)-2-(trifluoromethyl)pyrazolo[1,5-a]pyrimidine] here?
Answer: The mortality at 300 ppm was no less than 70%.

Question: For CCS(=O)(=O)c1cc(-c2cc(F)cc(F)c2)cnc1-c1ccn2nc(C(F)(F)F)nc2n1 [Compound 103, 5-(5-(3,5-difluorophenyl)-3-(ethylsulfonyl)pyridin-2-yl)-2-(trifluoromethyl)-[1,2,4]triazolo[1,5-a]pyrimidine], which mortality at 300 ppm is on record?
Answer: Its mortality at 300 ppm is no less than 70%.

Question: How did the mortality at 300 ppm turn out when CCS(=O)(=O)c1ccc(OC)nc1-c1ccn2nc(C(F)(F)F)cc2n1 [Compound 226, 5-(3-(ethylsulfonyl)-6-methoxypyridin-2-yl)-2-(trifluoromethyl)pyrazolo[1,5-a]pyrimidine] was run?
Answer: Its mortality at 300 ppm is no less than 70%.

Question: For CC#Cc1cnc(-c2ccn3nc(C(F)(F)F)cc3n2)c(S(=O)(=O)CC)c1 [Compound 178, 5-(3-(ethylsulfonyl)-5-(prop-1-yn-1-yl)pyridin-2-yl)-2-(trifluoromethyl)pyrazolo[1,5-a]pyrimidine], which mortality at 300 ppm is on record?
Answer: The mortality at 300 ppm was no less than 70%.

Question: Which mortality at 300 ppm does the source give for CCSc1ccc(C)nc1-c1ccn2nc(C(F)(F)F)cc2n1 [Compound 181, 5-(3-(ethylthio)-6-methylpyridin-2-yl)-2-(trifluoromethyl)pyrazolo[1,5-a]pyrimidine] here?
Answer: The mortality at 300 ppm was no less than 70%.

Question: How did the mortality at 300 ppm turn out when CCOc1ccc(S(=O)(=O)CC)c(-c2ccn3nc(C(F)(F)F)cc3n2)n1 [Compound 227, 5-(6-ethoxy-3-(ethylsulfonyl)pyridin-2-yl)-2-(trifluoromethyl)pyrazolo[1,5-a]pyrimidine] was run?
Answer: The mortality at 300 ppm was no less than 70%.

Question: With CCS(=O)(=O)c1cc(C2CC2)cnc1-c1ccn2nc(C(F)(F)F)nc2n1 [Compound 142, 5-(5-cyclopropyl-3-(ethylsulfonyl)pyridin-2-yl)-2-(trifluoromethyl)-[1,2,4]triazolo[1,5-a]pyrimidine] as the compound, how does the mortality at 300 ppm read?
Answer: Its mortality at 300 ppm is no less than 70%.

Question: With CCS(=O)(=O)c1ccc(C(C)C)nc1-c1ccn2nc(C(F)(F)F)cc2n1 [Compound 238, 5-(3-(ethylsulfonyl)-6-isopropylpyridin-2-yl)-2-(trifluoromethyl)pyrazolo[1,5-a]pyrimidine] as the compound, how does the mortality at 300 ppm read?
Answer: Its mortality at 300 ppm is no less than 70%.

Question: With CCS(=O)(=O)c1cc(-n2cnc(C)n2)cnc1-c1ccn2nc(C(F)(F)F)cc2n1 [Compound 69, 5-(3-(ethylsulfonyl)-5-(3-methyl-1H-1,2,4-triazol-1-yl)pyridin-2-yl)-2-(trifluoromethyl)pyrazolo[1,5-a]pyrimidine] as the compound, how does the mortality at 300 ppm read?
Answer: The mortality at 300 ppm was no less than 70%.

Question: For CCS(=O)(=O)c1ccc(NC(C)C)nc1-c1ccn2nc(C(F)(F)F)cc2n1 [Compound 241, 5-(ethylsulfonyl)-N-isopropyl-6-(2-(trifluoromethyl)pyrazolo[1,5-a]pyrimidin-5-yl)pyridin-2-amine], which mortality at 300 ppm is on record?
Answer: The mortality at 300 ppm was no less than 70%.

Question: How did the mortality at 300 ppm turn out when CCS(=O)(=O)c1ccc(OCC(F)(F)F)nc1-c1ccn2nc(C(F)(F)F)cc2n1 [Compound 239, 5-(3-(ethylsulfonyl)-6-(2,2,2-trifluoroethoxy)pyridin-2-yl)-2-(trifluoromethyl)pyrazolo[1,5-a]pyrimidine] was run?
Answer: Its mortality at 300 ppm is no less than 70%.

Question: Which mortality at 300 ppm does the source give for CCSc1cc(-n2cncn2)cnc1-c1ccn2nc(C(F)(F)F)cc2n1 [Compound 32, 5-(3-(ethylthio)-5-(1H-1,2,4-triazol-1-yl)pyridin-2-yl)-2-(trifluoromethyl)pyrazolo[1,5-a]pyrimidine] here?
Answer: Its mortality at 300 ppm is no less than 70%.

Question: With CCS(=O)(=O)c1cc(-c2cc(C(F)(F)F)nn2C)cnc1-c1ncc2nc(C(F)(F)F)n(C)c2n1 [Compound 121, 2-(3-(ethylsulfonyl)-5-(1-methyl-3-(trifluoromethyl)-1H-pyrazol-5-yl)pyridin-2-yl)-9-methyl-8-(trifluoromethyl)-9H-purine] as the compound, how does the mortality at 300 ppm read?
Answer: The mortality at 300 ppm was no less than 70%.

Question: For CCS(=O)(=O)c1cc(-c2cc(Cl)cc(Cl)c2)cnc1-c1ncc2nc(C(F)(F)F)n(C)c2n1 [Compound 128, 2-(5-(3,5-dichlorophenyl)-3-(ethylsulfonyl)pyridin-2-yl)-9-methyl-8-(trifluoromethyl)-9H-purine], which mortality at 300 ppm is on record?
Answer: Its mortality at 300 ppm is no less than 70%.

Question: For CCS(=O)(=O)c1ccc(OC2CSC2)nc1-c1ccn2nc(C(F)(F)F)cc2n1 [Compound 243, 5-(3-(ethylsulfonyl)-6-(thietan-3-yloxy)pyridin-2-yl)-2-(trifluoromethyl)pyrazolo[1,5-a]pyrimidine], which mortality at 300 ppm is on record?
Answer: The mortality at 300 ppm was no less than 70%.

Question: For CCSc1cc(C2CC2)cnc1-c1ccn2nc(C(F)(F)F)cc2n1 [Compound 189, 5-(5-cyclopropyl-3-(ethylthio)pyridin-2-yl)-2-(trifluoromethyl)pyrazolo[1,5-a]pyrimidine], which mortality at 300 ppm is on record?
Answer: Its mortality at 300 ppm is no less than 70%.

Question: For CCS(=O)(=O)c1ccc(-c2ccc(Cl)cc2)nc1-c1cnc2nc(C(F)(F)F)nn2c1 [Compound 47, 6-(6-(4-chlorophenyl)-3-(ethylsulfonyl)pyridin-2-yl)-2-(trifluoromethyl)-[1,2,4]triazolo[1,5-a]pyrimidine], which mortality at 300 ppm is on record?
Answer: Its mortality at 300 ppm is no less than 70%.

Question: Which mortality at 300 ppm does the source give for CCS(=O)(=O)c1ccc(OC(C)C)nc1-c1ccn2nc(C(F)(F)F)cc2n1 [Compound 240, 5-(3-(ethylsulfonyl)-6-isopropoxypyridin-2-yl)-2-(trifluoromethyl)pyrazolo[1,5-a]pyrimidine] here?
Answer: The mortality at 300 ppm was no less than 70%.

Question: Which mortality at 300 ppm does the source give for CCS(=O)(=O)c1cc(NC)cnc1-c1ccn2nc(C(F)(F)F)cc2n1 [Compound 218, 5-(ethylsulfonyl)-N-methyl-6-(2-(trifluoromethyl)pyrazolo[1,5-a]pyrimidin-5-yl)pyridin-3-amine] here?
Answer: The mortality at 300 ppm was no less than 70%.

Question: CCc1ccc(S(=O)(=O)CC)c(-c2ccn3nc(C(F)(F)F)cc3n2)n1 [Compound 209, 5-(6-ethyl-3-(ethylsulfonyl)pyridin-2-yl)-2-(trifluoromethyl)pyrazolo[1,5-a]pyrimidine] was tested. Which mortality at 300 ppm did it give?
Answer: Its mortality at 300 ppm is no less than 70%.

Question: With CCSc1cc(-c2ccc(F)cc2)cnc1-c1ccn2nc(C(F)(F)F)cc2n1 [Compound 190, 5-(3-(ethylthio)-5-(4-fluorophenyl)pyridin-2-yl)-2-(trifluoromethyl)pyrazolo[1,5-a]pyrimidine] as the compound, how does the mortality at 300 ppm read?
Answer: The mortality at 300 ppm was no less than 70%.

Question: CCS(=O)(=O)c1cc(-c2ccc(F)cc2)cnc1-c1ccn2nc(C(F)(F)F)nc2n1 [Compound 105, 5-(3-(ethylsulfonyl)-5-(4-fluorophenyl)pyridin-2-yl)-2-(trifluoromethyl)-[1,2,4]triazolo[1,5-a]pyrimidine] was tested. Which mortality at 300 ppm did it give?
Answer: Its mortality at 300 ppm is no less than 70%.

Question: With CCS(=O)(=O)c1ccc(NCC2CC2)nc1-c1ccn2nc(C(F)(F)F)cc2n1 [Compound 242, N-(cyclopropylmethyl)-5-(ethylsulfonyl)-6-(2-(trifluoromethyl)pyrazolo[1,5-a]pyrimidin-5-yl)pyridin-2-amine] as the compound, how does the mortality at 300 ppm read?
Answer: The mortality at 300 ppm was no less than 70%.

Question: For CC#Cc1ccc(S(=O)(=O)CC)c(-c2ccn3nc(C(F)(F)F)cc3n2)n1 [Compound 173, 5-(3-(ethylsulfonyl)-6-(prop-1-yn-1-yl)pyridin-2-yl)-2-(trifluoromethyl)pyrazolo[1,5-a]pyrimidine], which mortality at 300 ppm is on record?
Answer: Its mortality at 300 ppm is no less than 70%.

Question: For CCS(=O)(=O)c1cc(-n2cncn2)cnc1-c1ccn2nc(C(F)(F)F)nc2n1 [Compound 146, 5-(3-(ethylsulfonyl)-5-(1H-1,2,4-triazol-1-yl)pyridin-2-yl)-2-(trifluoromethyl)-[1,2,4]triazolo[1,5-a]pyrimidine], which mortality at 300 ppm is on record?
Answer: The mortality at 300 ppm was no less than 70%.

Question: With CCS(=O)(=O)c1ccc(-n2nc3ccc(C(F)(F)F)cn3c2=O)nc1-c1ccn2nc(C(F)(F)F)cc2n1 [Compound 27, 2-(5-(ethylsulfonyl)-6-(2-(trifluoromethyl)pyrazolo[1,5-a]pyrimidin-5-yl)pyridin-2-yl)-6-(trifluoromethyl)-[1,2,4]triazolo[4,3-a]pyridin-3(2H)-one] as the compound, how does the mortality at 300 ppm read?
Answer: Its mortality at 300 ppm is no less than 70%.
